The source of these data is PubChem BioAssay AID1259407 (Chemical Carcinogenesis Research Information System (CCRIS), 2018).

The series has as its system CCRIS mutagenicity, Ames/micronucleus/aberration tests. The experiment in a line: CCRIS mutagenicity studies.
Setting [1] is: Test System: MOUSE LYMPHOMA, Strain/Indicator: L5178Y (TK+/TK-), Metabolic Activation: NONE, Method: SUSPENSION/PLATE.

The structures appear in SMILES notation. Active and inactive are the calls of the source. The rule behind the calls is not given here.

Regarding `COP(=S)(OC)SCN1C(=O)c2ccccc2C1=O`, the mutagenic call is “active; positive” (Test System: AMES SALMONELLA TYPHIMURIUM, Strain/Indicator: TA97, Metabolic Activation: NONE, Method: STANDARD PLATE); “active; positive” (Test System: AMES SALMONELLA TYPHIMURIUM, Strain/Indicator: TA97, Metabolic Activation: RAT, LIVER, S-9, DELOR 103, Method: STANDARD PLATE); “active; positive” (Test System: AMES SALMONELLA TYPHIMURIUM, Strain/Indicator: TA97, Metabolic Activation: RAT, LIVER, S-9, PHENOBARBITAL, Method: STANDARD PLATE); “inactive; negative” (Test System: AMES SALMONELLA TYPHIMURIUM, Strain/Indicator: TA98, Metabolic Activation: NONE, Method: STANDARD PLATE); “inactive; negative” (Test System: AMES SALMONELLA TYPHIMURIUM, Strain/Indicator: TA98, Metabolic Activation: RAT, LIVER, S-9, DELOR 103, Method: STANDARD PLATE); “inactive; negative” (Test System: AMES SALMONELLA TYPHIMURIUM, Strain/Indicator: TA98, Metabolic Activation: RAT, LIVER, S-9, PHENOBARBITAL, Method: STANDARD PLATE). The mutagenic call is “active; positive” (Test System: AMES SALMONELLA TYPHIMURIUM, Strain/Indicator: TA100, Metabolic Activation: NONE, Method: STANDARD PLATE); “active; positive” (Test System: AMES SALMONELLA TYPHIMURIUM, Strain/Indicator: TA100, Metabolic Activation: RAT, LIVER, S-9, DELOR 103, Method: STANDARD PLATE); “active; positive” (Test System: AMES SALMONELLA TYPHIMURIUM, Strain/Indicator: TA100, Metabolic Activation: RAT, LIVER, S-9, PHENOBARBITAL, Method: STANDARD PLATE); “active; positive” (Test System: AMES SALMONELLA TYPHIMURIUM, Strain/Indicator: TA100, Metabolic Activation: S-9 MIX, Method: STANDARD PLATE); “inactive; negative” (Test System: AMES SALMONELLA TYPHIMURIUM, Strain/Indicator: TA1535, Metabolic Activation: NONE, Method: STANDARD PLATE); “inactive; negative” (Test System: AMES SALMONELLA TYPHIMURIUM, Strain/Indicator: TA1535, Metabolic Activation: RAT, LIVER, S-9, DELOR 103, Method: STANDARD PLATE). Moreover, the mutagenic call (Test System: AMES SALMONELLA TYPHIMURIUM, Strain/Indicator: TA1535, Metabolic Activation: RAT, LIVER, S-9, PHENOBARBITAL, Method: STANDARD PLATE) is “inactive; negative”; the mutagenic call (Test System: AMES SALMONELLA TYPHIMURIUM, Strain/Indicator: TA1538, Metabolic Activation: NONE, Method: STANDARD PLATE) is “inactive; negative”; the mutagenic call (Test System: AMES SALMONELLA TYPHIMURIUM, Strain/Indicator: TA1538, Metabolic Activation: RAT, LIVER, S-9, DELOR 103, Method: STANDARD PLATE) was “inactive; negative”; the mutagenic call (Test System: AMES SALMONELLA TYPHIMURIUM, Strain/Indicator: TA1538, Metabolic Activation: RAT, LIVER, S-9, PHENOBARBITAL, Method: STANDARD PLATE) was “inactive; negative”; the mutagenic call (Test System: CHINESE HAMSTER V-79, Strain/Indicator: V-79/6-THIOGUANINE, Metabolic Activation: NONE, Method: RESPREADING) is “inactive; negative”; the mutagenic call (Test System: CHINESE HAMSTER V-79, Strain/Indicator: V-79/6-THIOGUANINE, Metabolic Activation: RAT, LIVER, S-9, Method: RESPREADING) was “active; positive”.
Turning to `NC(N)=O`, the mutagenic call runs as follows: (Test System: AMES SALMONELLA TYPHIMURIUM, Strain/Indicator: TA98, Metabolic Activation: NONE, Method: PREINCUBATION) “inactive; negative”; (Test System: AMES SALMONELLA TYPHIMURIUM, Strain/Indicator: TA98, Metabolic Activation: RAT, LIVER, S-9, KC 500, Method: PREINCUBATION) “inactive; negative”; (Test System: AMES SALMONELLA TYPHIMURIUM, Strain/Indicator: TA100, Metabolic Activation: NONE, Method: PREINCUBATION) “inactive; negative”; (Test System: AMES SALMONELLA TYPHIMURIUM, Strain/Indicator: TA100, Metabolic Activation: RAT, LIVER, S-9, KC 500, Method: PREINCUBATION) “inactive; negative”; (Test System: AMES SALMONELLA TYPHIMURIUM, Strain/Indicator: TA1535, Metabolic Activation: NONE, Method: PREINCUBATION) “inactive; negative”; (Test System: AMES SALMONELLA TYPHIMURIUM, Strain/Indicator: TA1535, Metabolic Activation: RAT, LIVER, S-9, KC 500, Method: PREINCUBATION) “inactive; negative”. In addition, the mutagenic call runs as follows: (Test System: AMES SALMONELLA TYPHIMURIUM, Strain/Indicator: TA1537, Metabolic Activation: NONE, Method: PREINCUBATION) “inactive; negative”; (Test System: AMES SALMONELLA TYPHIMURIUM, Strain/Indicator: TA1537, Metabolic Activation: RAT, LIVER, S-9, KC 500, Method: PREINCUBATION) “inactive; negative”; (Test System: AMES SALMONELLA TYPHIMURIUM, Strain/Indicator: TA1538, Metabolic Activation: NONE, Method: PREINCUBATION) “inactive; negative”; (Test System: AMES SALMONELLA TYPHIMURIUM, Strain/Indicator: TA1538, Metabolic Activation: RAT, LIVER, S-9, KC 500, Method: PREINCUBATION) “inactive; negative”; (Test System: E. COLI, Strain/Indicator: WP2 UVRA, Metabolic Activation: NONE, Method: PREINCUBATION) “inactive; negative”; (Test System: E. COLI, Strain/Indicator: WP2 UVRA, Metabolic Activation: RAT, LIVER, S-9, KC 500, Method: PREINCUBATION) “inactive; negative”. For the same compound, under setting [1], the mutagenic call was “active; positive”.
As to `CC(C)=CCC[C@@](C)(O)[C@H]1CCC=CC1=O`, the mutagenic call by setting is: (Test System: AMES SALMONELLA TYPHIMURIUM, Strain/Indicator: TM677, Metabolic Activation: NONE, Method: STANDARD PLATE) “active; positive”; (Test System: AMES SALMONELLA TYPHIMURIUM, Strain/Indicator: TM677, Metabolic Activation: RAT, LIVER, S-9, AROCLOR 1254, Method: STANDARD PLATE) “active; positive”.
Consider `CC1CN(/N=C/c2ccc([N+](=O)[O-])o2)C(=O)N1` (stereo unspecified), for which the mutagenic call (Test System: AMES SALMONELLA TYPHIMURIUM, Strain/Indicator: TA100, Metabolic Activation: RAT, LIVER, S-9, KC500 OR PHENOBARBITAL, Method: LIQUID SUSPENSION) is “active; positive”.
On to `O=S(=O)(O)c1cc(N=Nc2ccc(O)cc2)ccc1C=Cc1ccc(N=Nc2ccc(O)cc2)cc1S(=O)(=O)O`, for which the mutagenic call is, setting by setting: under setting [1], “inactive; negative. reevaluation of results: negative”; (Test System: MOUSE LYMPHOMA, Strain/Indicator: L5178Y (TK+/TK-), Metabolic Activation: RAT, LIVER, S-9, AROCLOR 1254, Method: SUSPENSION/PLATE) “inactive; negative. reevaluation of results: negative”.
